# Source: the METLIN SMRT retention time set (Domingo-Almenara et al. 2019)
# Assay: gradient 5% acetonitrile 3 min, to 50% in 2 min, to 85% in 15 min, held 3 min, 100 µL/min
# Settings: column: Zorbax Extend-C18 2.1 x 50 mm; eluents: water / acetonitrile, 0.1% formic acid
# Summary of the method: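 Over 3 months, pure standards in mixtures of ~100 molecules were run by HPLC coupled to a quadrupole time-of-flight mass spectrometer in positive and negative ionization mode. The column was a Zorbax Extend-C18 (2.1 × 50 mm, 1.8 μm) at 100 μL/min, eluted with water and acetonitrile each holding 0.1% formic acid, with 40 μL dead and 900 μL dwell volumes. Retention time was determined from adduct peaks chosen by software and checked manually.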
row,RP-LC retention time,SMILES
1,690 s,O=C(Cn1nc2nc(N3CCCC3)ccn2c1=O)NCc1ccc(Cl)cc1
2,926 s,CCn1ccc2sc(C)c(C(=O)NCc3ccccc3Br)c2c1=O
3,741 s,O=C(NCc1ccccc1)C1CCN(C(=O)C2Sc3ccccc3NC2=O)CC1 (stereo not given)
4,825 s,COC(=O)CN1N=C(C(=O)N2CCC(C)CC2)S(=O)(=O)c2ccccc21
5,737 s,O=C(NCCC1=CCCCC1)C1CCN(c2cnc3nccnc3c2)CC1
6,561 s,COCCN1CCC(CNC(=O)Cc2cccc3ccccc23)CC1
7,784 s,CCCCN(CC)C(=O)C1CCN(S(=O)(=O)c2ccc3c(c2)NC(=O)CO3)CC1
8,725 s,CCSc1ccccc1C(=O)NCC1CCN(S(=O)(=O)C2CC2)CC1
9,1070 s,O=C1CC(c2noc(-c3ccc(F)c(Cl)c3)n2)CN1c1ccc(F)cc1 (stereo not given)
10,1030 s,O=C(Nc1cnc(-c2ccccc2)nc1)c1ccc(F)c(F)c1
11,724 s,CN(CC1CCOC1)C(=O)c1ccc(F)c(Cl)c1 (stereo not given)
12,590 s,CN(C)C(=O)C1CCc2nc(N3CCN(C(=O)C4CCC4)CC3)sc2C1 (stereo not given)
13,952 s,CC(NC(=O)C1(c2ccc(NS(C)(=O)=O)cc2)CCCCC1)c1ccc(F)cc1 (stereo not given)
14,682 s,CCC1CN2C=Nc3oc(C)c(C(=O)Nc4ccc(F)cc4Br)c3C2=N1 (stereo not given)
15,968 s,Cc1ccc(S(=O)(=O)N2CC(=O)N(c3ccc(F)cc3)C(C)(C(=O)NCc3ccccc3)C2)cc1 (stereo not given)
16,577 s,O=C(CSc1nc2ccccc2[nH]1)Nc1nc2ccccc2s1
17,600 s,CC1CCCCN1CCCNC(=O)Cn1c2ccccc2c2cnn(C)c(=O)c21 (stereo not given)
18,622 s,Cc1ccc(-c2ccc(N3CCCC(C(=O)N4CCC(C(N)=O)CC4)C3)nn2)cc1C (stereo not given)
19,622 s,O=C(Nc1ccccn1)C1CCN(C(=O)C2Sc3ccccc3NC2=O)CC1 (stereo not given)
20,1100 s,COc1ccc(-c2nc(Cn3ccn4nc(-c5ccccc5)cc4c3=O)c(C)o2)cc1
21,618 s,COCc1cc(=O)n(CC(=O)Nc2cccc(F)c2)c(N)n1
22,787 s,CCCN1C(=O)c2c(C(=O)NCc3ccccc3F)ncn2CC1(C)C(=O)NC1CCCC1 (stereo not given)
23,584 s,O=C(c1ccsc1)N1CCN(c2cc(-c3cccnc3)[nH]n2)CC1

row,RP-LC retention time,SMILES
1,557 s,CC1CCCN(CCNC(=O)C2CCc3nc(N4CCOCC4)ncc3C2)C1 (stereo not given)
2,624 s,Cc1ccnc(N2CCC(C(=O)NCc3ccco3)CC2)n1
3,978 s,Cc1ccc(NC(=O)C2CCN(S(=O)(=O)c3ccc4c(c3)sc(=O)n4C)CC2)cc1Cl
4,675 s,CCS(=O)(=O)N1CCOc2ccc(CCC(=O)NC3CC3)cc2C1
5,951 s,CSc1ccc(CNC(=O)C2CCCN(c3nccn4nc(-c5ccc(F)cc5)cc34)C2)cc1 (stereo not given)
6,643 s,Cc1cc(C(=O)NC2CCc3nnc(C)n3CC2)c(C)n1Cc1ccco1 (stereo not given)
7,1000 s,Cc1cc(C)n(Cc2nc(-c3ccc(NC(=O)C4CCCCC4)cc3)oc2C)n1
8,559 s,COC(=O)N1CCN(CCNC(=O)NCCCc2ccccc2)CC1
9,852 s,O=C(Nc1ccccc1Cl)N(CCc1ccccc1)Cc1ccccn1
10,811 s,C=CCNC(=O)c1nc(C(=O)N2CCc3ccccc3C2)cs1
11,676 s,Cc1noc(C)c1CC(=O)N1CCOc2ccc(NC(=O)C3CC3)cc2C1
12,819 s,CC(C)c1noc(CC2CCN(C(=O)c3ccsc3)CC2)n1
13,844 s,O=C(c1cccs1)N1CCC2(CC1)N=C(c1ccc(Cl)cc1)NO2
14,1010 s,CCC(c1cccs1)N1C(=O)[C@H]2CN(S(=O)(=O)c3cccc(OC)c3)C[C@H]2C1=O (stereo not given in full)
15,1110 s,O=S(=O)(Cc1cccc(Cl)c1)N1CCc2nc(-c3ccc(F)cc3)ncc2C1
16,1070 s,Cc1ccc2c(c1)N(Cc1cccc(F)c1)N=C(C(=O)N1CCC(C)CC1)S2(=O)=O
17,943 s,CCCn1cc(S(=O)(=O)NCc2cccc(C)c2)c2cccnc21
18,695 s,O=C(Nc1ccccc1Cl)Nc1c(-c2ccc(F)cc2)nc2ccccn12
19,950 s,CC(C)NC(=O)N(CC(=O)N1CCc2sccc2C1COc1cccc(F)c1)CC1CCCO1 (stereo not given)
20,660 s,CN(C)CCNC(=O)C1CCc2sc(C(=O)N3CCCC3)cc2C1 (stereo not given)
21,906 s,CCOC(=O)c1cccc(NC(=O)NC2COc3ccc(OC)cc3C2)c1 (stereo not given)
22,896 s,O=C(O)c1ccc(NCc2nc3ccccc3[nH]2)cc1
23,1300 s,CCOc1ccccc1NC(=O)C1CCCN(c2nc3c(s2)c(C)nn3-c2ccccc2)C1 (stereo not given)

row,RP-LC retention time,SMILES
1,1240 s,COc1ccc(Cl)cc1NC(=O)CSc1cc(N2CCN(c3ccccc3OC)CC2)ncn1
2,687 s,O=C(c1cc(C2CC2)n(CC(=O)N(Cc2ccccc2)c2ccccn2)n1)N1CCOCC1
3,954 s,Cc1cc(C)c(NC(=O)CN2C(=O)CC(c3cccs3)=Nc3ccccc32)c(C)c1
4,767 s,COc1ccc(-c2nnc(N3CCC(C(=O)NCc4cccs4)CC3)o2)cc1
5,1010 s,O=C(NCc1cccc2ccccc12)C(=O)c1c[nH]c2ccccc12
6,886 s,Cc1ccc(NC(=O)Cn2c(=O)n(-c3ccccc3)c(=O)c3c2cc(C)n3C)cc1C
7,780 s,Cc1ccc(SCC(=O)Nc2nnc(Cc3ccc4c(c3)OCO4)o2)cc1
8,950 s,CC(C)n1cc(S(=O)(=O)Nc2ccc(Cl)cc2F)c2cccnc21
9,729 s,CC1CN(c2ccc(F)cc2)c2nc3c(c(=O)n(CC(=O)O)c(=O)n3C)n2C1 (stereo not given)
10,653 s,O=C(c1cccs1)N1CCC(n2c(C3CCCC3)nc3cccnc32)C1 (stereo not given)
11,697 s,CCC(=O)Nc1ccc(-n2cnc(C(=O)NCc3ccccc3)c2)nc1
12,745 s,CCc1nnc(-c2ccc3ccn(CC(=O)NCc4ccc(OC)c(OC)c4)c3c2)o1
13,574 s,Nc1nc(SCC(=O)c2ccc3c(c2)OCCO3)n[nH]1
14,606 s,COCCCNC(=O)C1CCN(c2cncnc2N2CCCCC2)CC1
15,974 s,CCC(=O)Nc1cc2c(cc1Sc1ccc(OC)cc1)n(C)c(=O)n2C
16,829 s,COc1ccc(NC(=O)Cn2c(C(F)(F)F)nc3cc4c(cc32)OCCO4)cc1
17,778 s,Cc1ccc(NS(=O)(=O)c2cc3n(c2)CCCN(C(C)C)C3=O)cc1
18,788 s,O=C1CC(CNS(=O)(=O)c2ccc3c(c2)OCCO3)CN1c1ccc(Cl)cc1 (stereo not given)
19,694 s,COc1ccc(NC(=O)Cn2c(=O)c3cc(C)nn3c3ncccc32)c(OC)c1
20,568 s,COc1ccc(Br)cc1S(=O)(=O)NCCCn1ccnc1
21,592 s,CCC1CN(C(=O)N2CCC(C(=O)NCCCN3CCN(C)CC3)CC2)c2ccccc2O1 (stereo not given)
22,654 s,Cc1cnc(CC2CCN(S(=O)(=O)c3ccc(C#N)cc3)C2)n1C1CC1 (stereo not given)
23,670 s,O=C1NC(=O)N2CCSC2(Cc2ccccc2)N1 (stereo not given)

row,RP-LC retention time,SMILES
1,960 s,Brc1ccc(OCc2nnc3sc(-c4ccccn4)nn23)cc1
2,756 s,COCCNC(=O)C1CCCN(c2nn3cc(-c4ccc(F)cc4)nc3s2)C1 (stereo not given)
3,742 s,CCCn1c(-c2cccc(C(=O)NCc3ccco3)c2)nc2cccnc21
4,853 s,Cc1cccc(NC(=O)CN2C(=O)C3CCCCN3c3ccc(C(=O)N4CCCC4)cc32)c1 (stereo not given)
5,915 s,O=C(Nc1ccccc1C(F)(F)F)c1cnc(-c2ccccc2)nc1-c1ccncc1
6,918 s,Cc1ccc(C(=O)Nc2nc(-c3ccc4c(c3)NC(=O)C(C)O4)cs2)cc1 (stereo not given)
7,588 s,CC(=O)Nc1ccc(S(=O)(=O)N2CCC(CN3CCCCCC3)CC2)cc1
8,607 s,O=C(NCc1ccc(F)cc1)C1CCN(c2cc(N3CCOCC3)ncn2)CC1
9,608 s,CC(C)C(=O)Nc1ccc(-n2cnc(C(=O)N3CCN(Cc4ccccc4)CC3)c2)nc1
10,858 s,CCc1ccc(CNC(=O)c2cc3n(n2)CC(C)(C(=O)NCc2ccc(F)cc2)N(C)C3=O)cc1 (stereo not given)
11,604 s,Cc1ccc(NC(=O)N2CC(n3ccnc3)C2)cc1C
12,791 s,O=C(NCCc1ccccc1)c1ccc2c(cnn2CC(=O)N2CCCCCC2)c1
13,720 s,CCOCCCNS(=O)(=O)c1cc(-c2cc(C)[nH]n2)sc1C
14,1270 s,Cc1ccc(-c2csc(NC(=O)c3ccc(Br)cc3)n2)c(C)c1
15,670 s,COc1ccc(OC)c(NC(=O)Cn2ccc3c(=O)n(C)c(=O)n(C)c32)c1
16,1150 s,O=S(=O)(c1ccccc1C(F)(F)F)N1CCc2nc(-c3ccc(F)cc3)ncc2C1
17,676 s,COc1ccc(OC)c(NC(=O)N2CCN(c3cc(C)nc(N4CCCC4)n3)CC2)c1
18,604 s,Cc1ccc(C(=O)NCc2ccc3c(c2)ncn3C)s1
19,771 s,CCN1c2cc(F)ccc2C(=O)NC12CCN(C(=O)c1ccc3c(c1)OCO3)CC2
20,760 s,CC(C)NC(=O)c1cc2c(=O)oc3ccccc3c2n1C
21,873 s,COc1ccc(N2CCN(c3cc(SCC(=O)NCCC(C)C)ncn3)CC2)cc1
